One test deals with Carbonic anhydrase 9 (Homo sapiens, UniProt Q16790). Nature of the test: Inhibition of human CA9 preincubated for 15 mins prior to testing by phenol red-based stopped-flow CO2 hydration assay.
Test [1] has as its system MCF7. Nature of the test: Induction of cell cycle arrest in human MCF7 cells assessed as decrease in G0/G1 cells at IC50 concentration incubated for 24 hrs by propidium iodide staining based flow cytometry (reference value: 52.63%). The class given is functional. Also noted: scale not given: the % may be the effect or the level left. For orientation: In flow cytometry, cells or beads pass a laser one at a time.

Test [2] deals with MCF7. Put plainly: Antiproliferative activity against human MCF7 cells assessed as reduction in cell viability incubated for 48 hrs under chemically-induced hypoxic condition by MTT assay. The following applies: MCF7, 48 h.
Test [3] concerns MDA-MB-231. Put plainly: Induction of apoptosis in human MDA-MB-231 cells assessed as necrotic cells at […] measured after 24 hrs by Annexin V-FITC/propidium iodide staining based flow cytometry (reference value: 0.64 %). The class given is functional. The arrangement: dose or concentration left out as unconfirmed.
Test [4] relates to MCF7. Put plainly: Induction of apoptosis in human MCF7 cells assessed as late apoptotic cells at […] measured after 24 hrs by Annexin V-FITC/propidium iodide staining based flow cytometry (reference value: 0.29 %). It is filed as functional. The arrangement: dose or concentration left out as unconfirmed.
Test [5] has as its system MDA-MB-231. Nature of the test: Induction of apoptosis in human MDA-MB-231 cells assessed as early apoptotic cells at […] measured after 24 hrs by Annexin V-FITC/propidium iodide staining based flow cytometry (reference value: 0.56 %). It is filed as functional. Also noted: dose or concentration left out as unconfirmed.
The subject of test [6] is MDA-MB-231. Nature of the test: Induction of apoptosis in human MDA-MB-231 cells assessed as late apoptotic cells at […] measured after 24 hrs by Annexin V-FITC/propidium iodide staining based flow cytometry (reference value: 0.24 %). The arrangement: dose or concentration left out as unconfirmed. It is filed as functional.
Test [7] concerns MCF7. Put plainly: Antiproliferative activity against human MCF7 cells assessed as reduction in cell viability incubated for 48 hrs under normaxic condition by MTT assay. Particulars: MCF7, 48 h. In general terms: Formazan colour is commonly taken as a measure of viable cells.
The subject of test [8] is MCF7. Put plainly: Induction of apoptosis in human MCF7 cells assessed as necrotic cells at […] measured after 24 hrs by Annexin V-FITC/propidium iodide staining based flow cytometry (reference value: 1.15 %). It is filed as functional. The arrangement: dose or concentration left out as unconfirmed.
For test [9], the system named is MDA-MB-231. Put plainly: Induction of cell cycle arrest in human MDA-MB-231 cells assessed as decrease in G0/G1 cells at IC50 concentration incubated for 24 hrs by propidium iodide staining based flow cytometry (reference value: 56.42%). It is filed as functional. The arrangement: scale not given: the % may be the effect or the level left.
Test [10] relates to MDA-MB-231. Nature of the test: Antiproliferative activity against human MDA-MB-231 cells assessed as reduction in cell viability incubated for 48 hrs under normaxic condition by MTT assay. The following applies: MDA-MB-231, 48 h.
The test system of test [11] is MCF7. Put plainly: Induction of apoptosis in human MCF7 cells assessed as early apoptotic cells at […] measured after 24 hrs by Annexin V-FITC/propidium iodide staining based flow cytometry (reference value: 0.42 %). It is filed as functional. The arrangement: dose or concentration left out as unconfirmed.
Test [12] deals with MDA-MB-231. Nature of the test: Antiproliferative activity against human MDA-MB-231 cells assessed as reduction in cell viability incubated for 48 hrs under chemically-induced hypoxic condition by MTT assay. The following applies: MDA-MB-231, 48 h.
The target of the next test is Carbonic anhydrase 1 (Homo sapiens, UniProt P00915). Nature of the test: Inhibition of human CA1 preincubated for 15 mins prior to testing by phenol red-based stopped-flow CO2 hydration assay.

Broadly, the Ki is a measure of affinity in units of concentration, obtained from inhibition or displacement. For orientation: IC50 means the concentration that inhibits the measured activity by half.

Bounds are passed on as bounds.

Chain of Carbonic anhydrase 1 (P00915 whole entry): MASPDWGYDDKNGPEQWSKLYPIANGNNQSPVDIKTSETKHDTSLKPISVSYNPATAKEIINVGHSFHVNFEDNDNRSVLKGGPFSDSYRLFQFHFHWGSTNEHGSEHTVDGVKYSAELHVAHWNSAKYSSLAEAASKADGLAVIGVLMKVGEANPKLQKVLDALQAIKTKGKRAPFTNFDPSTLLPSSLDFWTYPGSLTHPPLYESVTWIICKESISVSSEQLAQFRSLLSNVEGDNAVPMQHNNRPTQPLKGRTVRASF

Turning to `Cc1c(C(=O)/C=C/Nc2cc(Cl)c(S(N)(=O)=O)cc2S(N)(=O)=O)sc2nc3ccccc3n12`, on Carbonic anhydrase 9, the Ki is 30.8 nM.

On Carbonic anhydrase 9, `Cc1c(NC(=O)Nc2ccc(S(N)(=O)=O)cc2)sc2nc3ccccc3n12` gave a Ki of 63.3 nM.

Consider `Cc1c(C(=O)/C=C/Nc2ccc(C(=O)O)cc2)sc2nc3ccccc3n12`, for which the Ki at Carbonic anhydrase 9 was determined as 830 nM.

Consider `Cc1c(NC(=O)NNC(=O)c2ccc(S(N)(=O)=O)cc2)sc2nc3ccccc3n12`, for which the Ki on Carbonic anhydrase 9 was 53.1 nM.

Regarding `Cc1ccc(N/C=C/C(=O)c2sc3nc4ccccc4n3c2C)cc1S(N)(=O)=O`, the Activity with MCF7 [1] turned out to be 34.36%; with MDA-MB-231 [3], 11.22%; in the test on MCF7 [4], 17.16%; in the test on MDA-MB-231 [5] it was 7.21%; with MDA-MB-231 [6] it was 15.64%; in the test on MCF7 [8] it was 6.04%. The results for the Activity in the test on MDA-MB-231 [9] and in the test with MCF7 [11] were 26.47% and 3.71%, respectively. The IC50 with MCF7 [2] is 2360 nM; with MCF7 [7], 1510 nM; in the test with MDA-MB-231 [10], 9370 nM; with MDA-MB-231 [12] it was 4810 nM. The compound also yielded a Ki at Carbonic anhydrase 9 of 6.2 nM.

In turn, `Cc1c(NC(=O)Nc2ccccc2S(N)(=O)=O)sc2nc3ccccc3n12` displayed a Ki on Carbonic anhydrase 9 of 831 nM.

Compound `Cc1c(C(=O)/C=C/Nc2ccccc2S(N)(=O)=O)sc2nc3ccccc3n12` came in with a Ki at Carbonic anhydrase 9 of 498 nM.

As for `Cc1c(C(=O)/C=C/NNc2ccc(S(N)(=O)=O)cc2)sc2nc3ccccc3n12`, the Ki at Carbonic anhydrase 9 amounted to 12.3 nM.

As for `C/C(=N\Nc1ccc(S(N)(=O)=O)cc1)c1sc2nc3ccccc3n2c1C`, at Carbonic anhydrase 9, the Ki was 73.1 nM.

`Cc1c(NC(=O)Nc2cccc(S(N)(=O)=O)c2)sc2nc3ccccc3n12`: on Carbonic anhydrase 9, the affinity corresponds to a Ki of 76.7 nM.

At Carbonic anhydrase 9, `Cc1c(C(=O)/C=C/NCCc2ccc(S(N)(=O)=O)cc2)sc2nc3ccccc3n12` returned a Ki of 20.5 nM.

`Cc1c(NC(=O)NCCc2ccc(S(N)(=O)=O)cc2)sc2nc3ccccc3n12`: on Carbonic anhydrase 9, the affinity corresponds to a Ki of 29.7 nM.

For `Cc1c(C(=O)/C=C/NNC(=O)c2ccc(S(N)(=O)=O)cc2)sc2nc3ccccc3n12`, the IC50 came to 9380 nM in the test on MCF7 [2], 8070 nM in the test with MCF7 [7], 14200 nM in the test on MDA-MB-231 [10] and 15200 nM with MDA-MB-231 [12]. Further, the Ki on Carbonic anhydrase 9 came to 9.7 nM.

Consider `Cc1c(C(=O)/C=C/NCc2ccc(S(N)(=O)=O)cc2)sc2nc3ccccc3n12`, for which, at Carbonic anhydrase 9, affinity was put at a Ki of 55.9 nM.

On Carbonic anhydrase 9, `Cc1c(C(=O)/C=C/Nc2ccc(S(N)(=O)=O)cc2)sc2nc3ccccc3n12` yielded a Ki of 36.6 nM.

Turning to `Cc1c(C(=O)/C=C/Nc2cccc(C(=O)O)c2)sc2nc3ccccc3n12`, the Ki was 14500 nM on Carbonic anhydrase 9 and more than 10000 nM at Carbonic anhydrase 1.

`Cc1c(C(=O)/C=C/Nc2cccc(S(N)(=O)=O)c2)sc2nc3ccccc3n12`: the affinity at Carbonic anhydrase 9 corresponds to a Ki of 813 nM.

On to `C/C(=N\NC(=O)c1ccc(S(N)(=O)=O)cc1)c1sc2nc3ccccc3n2c1C`, for which the IC50 in the test on MCF7 [2] was 29400 nM; in the test on MCF7 [7], 20400 nM; with MDA-MB-231 [10], 9910 nM; in the test on MDA-MB-231 [12], 6790 nM. The Ki at Carbonic anhydrase 9 was found to be 5.5 nM.
